Here are results for one compound from PMC13192270, “RhlR quorum-sensing receptor ligand sensitivity regulates the differential expression of phenazine genes in Pseudomonas aeruginosa” (Journal of Bacteriology, 2026).

Molecules are shown by their SMILES. Positions count from the first letter of the chain named. Where two headings read alike, the source gives them in different places.

Holding throughout (assay): E. coli prhlA-luxCDABE luciferase reporter assay
Format in all cases: cell-based

One assay deals with T1, RhlR (I84M) (Pseudomonas aeruginosa, UniProt P54292, I84M).
T1 construct: expressed in transfected cells; host or cells: E. coli carrying pBAD-A-rhlR mutant, pCS26-prhlA-luxCDABE and pACYC-pqsE or empty pACYC
The conditions noted are these: pqsE co-expressed. The source says:
(§1) Previous analysis of the RhlR LBP focused on highly conserved residues that were known from other AHL-binding proteins to be important contacts for AHL molecules, particularly the lactone head group. We performed conservation analyses on 300 LuxR-type receptors to determine variable and moderately conserved residues in the LBP (Fig. 1B) and, in conjunction with our previously determined experimental structure of WT RhlR bound to the synthetic agonist mBTL, used for docking C4- and C6HSL. Based on our docking simulations, C4- and C6HSL occupy a similar position in the LBP as mBTL, a highly efficacious activator of RhlR (Fig. 1C; Fig. S1). We targeted residues A44, G46, T58, L69, Y72, D81, I84, W96, and W108 (Fig. 1B and C). These residues were selected because of their proximity to the acyl tail of C4HSL, as well as the differences in conservation that are observed at these sites. We used an E. coli luciferase reporter assay to monitor ligand-dependent activation of WT RhlR and RhlR variants. WT RhlR and RhlR variants were expressed under the control of an arabinose-inducible promoter (Fig. S2). Transcription was monitored by light production via the expression of the luxCDABE operon controlled by the RhlR-dependent promoter of rhlA. Binding of RhlR to the rhlA promoter is highly dependent on the C4HSL-RhlR interaction, based on ChIP-seq analyses performed in P. aeruginosa as well as previously published E. coli reporter systems ([34], [39]). After expressing WT RhlR and RhlR variants in the E. coli reporter system, we performed dose response assays using C4HSL to calculate the concentration of C4HSL required to activate the reporter system to 50% maximum levels (EC50 value; Table 1). As expected, transcription activation by WT RhlR increased with increased C4HSL levels, with an EC50 value of ~2 µM. We observed a range of responses. Figure 1C depicts the targeted residues, which are colored based on the effect of amino acid substitution.
(§2) RhlR requires the accessory-binding protein, PqsE, for maximal activity. To determine if PqsE expression altered the activation of RhlR variants, we assessed AHL-dependent RhlR activation of the prhlA-luxCDABE reporter in the presence of a third plasmid that constitutively expresses PqsE in E. coli. […] RhlR variants that were still active but with increased EC50 values for C4HSL could have their activity enhanced by PqsE. […] Thus, alterations to the LBP can diminish the additive effect of PqsE-dependent transcription, indicating a potential role of allosteric conformational changes dependent on ligand occupancy. […] RhlR variants at residues I84 and W108 could not be activated by C4HSL, and thus, light levels remained low at all concentrations that were tested. Unlike the aforementioned variants, RhlR I84M/W and RhlR W108F/Y were activated by the expression of PqsE (Fig. S4).
(§3) All E. coli strains in this study were grown overnight with shaking in 5 mL Luria-Bertani (LB) media supplemented with 100 µg/mL ampicillin, 50 µg/mL kanamycin, and 15 µg/mL tetracycline at 37°C overnight. Overnight cultures were diluted 1:100 into fresh media, grown at 37°C with shaking for 2 h until reaching OD600 = 0.4. Cultures were induced with a final concentration of 0.1% arabinose, and 198 μL of the induced culture was mixed with 2 μL of C4HSL dilutions in a clear-bottom, black-opaque 96-well plate (Corning) and grown at 37°C with shaking for 4 h. The C4HSL dilution series was performed 1:1 in dimethyl sulfoxide (DMSO) with a top final concentration of 10 μM. Luminescence and optical density were recorded using a Glomax (Promega) plate reader.

In a further assay the target is T2, RhlR (G46W) (Pseudomonas aeruginosa, UniProt P54292, G46W).
T2 construct: expressed in transfected cells; host or cells: E. coli carrying pBAD-A-rhlR mutant, pCS26-prhlA-luxCDABE and pACYC-pqsE or empty pACYC
To be noted: even at the highest dose of C4HSL tested.
Text: as §1, §2, §3

The next assay addresses T3, RhlR (A44M) (Pseudomonas aeruginosa, UniProt P54292, A44M).
T3 construct: expressed in transfected cells; host or cells: E. coli carrying pBAD-A-rhlR mutant, pCS26-prhlA-luxCDABE and pACYC-pqsE or empty pACYC
The conditions noted are these: even at the highest dose of C4HSL tested.
Text: as §1, §2, §3

Another assay deals with T4, WT RhlR (Pseudomonas aeruginosa, UniProt P54292).
T4 construct: expressed in transfected cells; host or cells: E. coli carrying pBAD-A-rhlR, pCS26-prhlA-luxCDABE and pACYC-pqsE or empty pACYC
T4 sequence (P54292 1-241): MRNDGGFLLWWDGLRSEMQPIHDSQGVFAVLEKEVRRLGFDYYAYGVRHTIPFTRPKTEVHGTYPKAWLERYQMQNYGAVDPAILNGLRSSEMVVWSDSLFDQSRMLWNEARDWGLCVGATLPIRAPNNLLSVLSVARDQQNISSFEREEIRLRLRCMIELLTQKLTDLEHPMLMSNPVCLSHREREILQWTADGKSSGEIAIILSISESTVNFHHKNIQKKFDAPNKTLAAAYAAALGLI
Text: as §1, §2, §3

The next assay deals with T5, RhlR (G46M) (Pseudomonas aeruginosa, UniProt P54292, G46M).
T5 construct: expressed in transfected cells; host or cells: E. coli carrying pBAD-A-rhlR mutant, pCS26-prhlA-luxCDABE and pACYC-pqsE or empty pACYC
Text: as §1, §2, §3

A further assay addresses T6, RhlR (I84W) (Pseudomonas aeruginosa, UniProt P54292, I84W).
T6 construct: expressed in transfected cells; host or cells: E. coli carrying pBAD-A-rhlR mutant, pCS26-prhlA-luxCDABE and pACYC-pqsE or empty pACYC
To be noted: pqsE co-expressed.
Text: as §1, §2, §3

Another assay addresses T7, RhlR (T58V) (Pseudomonas aeruginosa, UniProt P54292, T58V).
T7 construct: expressed in transfected cells; host or cells: E. coli carrying pBAD-A-rhlR mutant, pCS26-prhlA-luxCDABE and pACYC-pqsE or empty pACYC
T7 sequence (P54292 1-241 T58V): T4 sequence (P54292 1-241) with T58V
Text: as §1, §2, §3

The target in a further assay is T8, RhlR (L69M) (Pseudomonas aeruginosa, UniProt P54292, L69M).
T8 construct: expressed in transfected cells; host or cells: E. coli carrying pBAD-A-rhlR mutant, pCS26-prhlA-luxCDABE and pACYC-pqsE or empty pACYC
Text: as §1, §2, §3

Another assay has as its target T9, RhlR (L69K) (Pseudomonas aeruginosa, UniProt P54292, L69K).
T9 construct: expressed in transfected cells; host or cells: E. coli carrying pBAD-A-rhlR mutant, pCS26-prhlA-luxCDABE and pACYC-pqsE or empty pACYC
To be noted: pqsE co-expressed.
Text: as §1, §2, §3

With `CCCC(=O)N[C@H]1CCOC1=O` [C4HSL, N-butyryl-L-homoserine lactone], the EC50 is 3680 nM on RhlR (I84M); 2420 nM on WT RhlR (Vector (no pqsE), read-out: EC50); 534 nM at WT RhlR (pqsE co-expressed, read-out: EC50); ~2000 nM on WT RhlR (without PqsE, read-out: EC50 value); 32700 nM on RhlR (G46M) (pqsE co-expressed); 5200 nM on RhlR (I84W). The EC50 on RhlR (T58V) (Vector (no pqsE)) is 660 nM; at RhlR (T58V) (pqsE co-expressed), 148 nM; on RhlR (L69M) (Vector (no pqsE)), 13800 nM; on RhlR (L69M) (pqsE co-expressed), 1720 nM; at RhlR (L69K) it was 13200 nM. In addition, the “activation by C4HSL in the reporter system” value at RhlR (G46W), at RhlR (A44M) and at RhlR (G46M) (even at the highest dose of C4HSL tested) was “not activated” in each case. Moreover, the “C4HSL required for QS activation” value at WT RhlR (statement in discussion) was > 1 µM.
